According to patent US9309242B2, “Substituted pyrido[2,3-b]pyrazines as FGFR kinase inhibitors” (priority 2011, dated 2016):

Columns and labels:
FGFR2 (h) = FGFR2 (h) (Homo sapiens, UniProt P21802); assay: FGFR2 (enzymatic assay), TR-FRET; format: biochemical; details: enzymatic assay; read-out: FGFR 2 pIC50 (converted)
Method in brief: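 Phosphorylation of 500 nM Btn-Flt3 by human FGFR2 (150 ng/ml) is measured at 0.4 μM ATP. The buffer is 50 mM HEPES pH 7.5 containing 6 mM MnCl2, 1 mM DTT, 0.1 mM Na3VO4 and 0.01% Triton-X-100, and compound is tested at 1% DMSO final.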

FGFR4 (h) = FGFR4 (h) (Homo sapiens, UniProt P22455); assay: FGFR4 (enzymatic assay), TR-FRET; format: biochemical; details: FGFR 4 pIC50, enzymatic assay
[1] = biological target: T1, Ba/F3-FGFR1-transfected cells (Homo sapiens, UniProt P11362); assay: Ba/F3-FGFR1 (minus IL3) cellular proliferation assay, Alamar Blue; format: cell-based
T1 construct: BAF3-FGFR1 (MIN IL3) pIC50; other: minus IL3
Method in brief: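 Viability was measured by resazurin reduction (fluorescence, 540 nm excitation/590 nm emission) after a 4 h Alamar Blue incubation. This followed 24 h of compound treatment at 37 °C, 5% CO2, of 20000 FGFR1-transfected Ba/F3 cells per well in 10% FBS RPMI-1640.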

[2] = system: Ba/F3-FGFR1-transfected cells; assay: Ba/F3-FGFR1 (plus IL3) cellular proliferation assay, counterscreen with 10 ng/ml murine IL3; format: cell-based; details: plus IL3 (10 ng/ml murine IL3, counterscreen); read-out: BAF3-FGFR1 (PLUS IL3) pIC50 (converted)
Method in brief: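 Proliferation read-out: resazurin-based Alamar Blue fluorescence (540/590 nm) after 4 h, following 24 h compound treatment of 20000 Ba/F3-FGFR1 cells per well in 10% FBS RPMI at 37° C. IL3 counterscreen used the same protocol plus 10 ng/ml murine IL3.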

T1 sequence (P11362 whole entry, change not shown): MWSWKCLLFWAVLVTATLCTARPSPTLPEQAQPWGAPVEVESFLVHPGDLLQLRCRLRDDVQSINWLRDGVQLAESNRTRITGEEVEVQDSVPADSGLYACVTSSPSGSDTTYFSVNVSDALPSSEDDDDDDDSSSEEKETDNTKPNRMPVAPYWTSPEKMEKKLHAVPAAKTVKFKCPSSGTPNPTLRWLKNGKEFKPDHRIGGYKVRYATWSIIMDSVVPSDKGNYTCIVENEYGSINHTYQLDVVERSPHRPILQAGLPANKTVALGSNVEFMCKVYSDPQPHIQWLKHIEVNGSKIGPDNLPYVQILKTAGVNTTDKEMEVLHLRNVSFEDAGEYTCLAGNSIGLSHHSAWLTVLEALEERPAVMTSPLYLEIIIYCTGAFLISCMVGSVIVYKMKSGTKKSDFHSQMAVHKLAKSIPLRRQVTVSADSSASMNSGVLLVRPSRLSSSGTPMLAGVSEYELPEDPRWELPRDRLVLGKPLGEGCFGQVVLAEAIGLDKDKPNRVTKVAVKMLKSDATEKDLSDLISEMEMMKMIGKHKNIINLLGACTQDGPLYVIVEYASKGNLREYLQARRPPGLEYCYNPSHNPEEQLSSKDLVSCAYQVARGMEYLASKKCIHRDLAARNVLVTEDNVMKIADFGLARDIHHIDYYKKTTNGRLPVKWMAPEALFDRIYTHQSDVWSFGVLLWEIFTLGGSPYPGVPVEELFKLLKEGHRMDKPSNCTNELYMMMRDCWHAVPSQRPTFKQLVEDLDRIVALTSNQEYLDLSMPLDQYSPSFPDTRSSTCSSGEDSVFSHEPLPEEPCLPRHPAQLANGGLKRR
FGFR2 (h), sequence (P21802 22-821): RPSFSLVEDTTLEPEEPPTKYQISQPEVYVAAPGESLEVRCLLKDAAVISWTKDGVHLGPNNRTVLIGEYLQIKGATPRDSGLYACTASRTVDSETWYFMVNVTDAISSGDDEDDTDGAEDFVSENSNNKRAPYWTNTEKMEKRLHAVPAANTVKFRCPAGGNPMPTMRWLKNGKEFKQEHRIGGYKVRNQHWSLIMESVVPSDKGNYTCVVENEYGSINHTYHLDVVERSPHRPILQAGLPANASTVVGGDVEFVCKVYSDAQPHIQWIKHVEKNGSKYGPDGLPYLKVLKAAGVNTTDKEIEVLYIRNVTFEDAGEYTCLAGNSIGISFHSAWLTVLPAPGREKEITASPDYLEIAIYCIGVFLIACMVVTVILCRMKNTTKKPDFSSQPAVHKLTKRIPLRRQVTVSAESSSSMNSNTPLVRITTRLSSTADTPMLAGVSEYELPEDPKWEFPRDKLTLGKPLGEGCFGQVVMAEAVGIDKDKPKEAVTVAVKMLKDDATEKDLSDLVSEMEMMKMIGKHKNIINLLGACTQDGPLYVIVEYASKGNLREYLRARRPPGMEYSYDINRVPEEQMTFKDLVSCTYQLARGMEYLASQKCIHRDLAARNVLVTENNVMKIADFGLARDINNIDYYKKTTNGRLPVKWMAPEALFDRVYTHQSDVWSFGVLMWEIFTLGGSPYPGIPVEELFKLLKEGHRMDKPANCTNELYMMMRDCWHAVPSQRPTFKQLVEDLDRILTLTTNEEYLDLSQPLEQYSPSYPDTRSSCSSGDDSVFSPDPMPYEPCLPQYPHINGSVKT
FGFR4 (h), sequence (P22455 22-802): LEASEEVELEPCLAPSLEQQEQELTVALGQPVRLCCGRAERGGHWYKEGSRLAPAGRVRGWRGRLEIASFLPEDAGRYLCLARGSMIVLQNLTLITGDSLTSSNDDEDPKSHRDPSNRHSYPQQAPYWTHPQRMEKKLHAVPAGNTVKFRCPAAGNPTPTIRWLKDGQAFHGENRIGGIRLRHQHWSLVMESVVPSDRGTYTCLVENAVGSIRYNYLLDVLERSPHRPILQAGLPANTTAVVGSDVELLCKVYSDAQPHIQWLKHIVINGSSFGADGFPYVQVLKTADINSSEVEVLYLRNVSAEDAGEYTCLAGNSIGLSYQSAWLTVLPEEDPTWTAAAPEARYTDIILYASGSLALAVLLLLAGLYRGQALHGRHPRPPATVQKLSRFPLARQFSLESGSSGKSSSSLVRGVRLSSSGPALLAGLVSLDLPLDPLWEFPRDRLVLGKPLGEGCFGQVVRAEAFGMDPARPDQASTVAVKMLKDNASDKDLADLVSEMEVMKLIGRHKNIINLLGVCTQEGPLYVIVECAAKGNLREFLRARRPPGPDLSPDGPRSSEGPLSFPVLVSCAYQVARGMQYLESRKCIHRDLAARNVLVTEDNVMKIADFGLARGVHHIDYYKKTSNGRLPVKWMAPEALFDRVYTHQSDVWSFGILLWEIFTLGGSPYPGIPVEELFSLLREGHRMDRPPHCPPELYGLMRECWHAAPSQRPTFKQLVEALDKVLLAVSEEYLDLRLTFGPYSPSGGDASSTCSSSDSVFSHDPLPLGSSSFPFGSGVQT

Row | Structure (SMILES) | IC50 (FGFR2 (h)) | IC50 (FGFR4 (h)) | BAF3-FGFR1 (MIN IL3) pIC50 [1] | IC50 [2] | melting point
1 | COCC(O)Cn1/c(=N/c2cc(OC)cc(OC)c2F)ccc2ncc(-c3cnn(C)c3)nc21 (single isomer, unassigned) [Compound 60] | 1 nM | 0.724 nM | 8.43 | > 10000 nM | 114 °C
2 | COc1cc(OC)c(F)c(N(CC(O)COC(C)C)c2ccc3ncc(-c4cnn(CC(O)COC(C)C)c4)nc3n2)c1 (single isomer, unassigned) [Compound 252] | 5.37 nM | 5.13 nM | 7.14 | > 10000 nM | 60 °C
3 | COc1cc(OC)c(F)c(N(C)c2ccc3ncc(-c4cnn(C)c4)nc3n2)c1F (single isomer, unassigned) [Compound 254] | 1.05 nM | 1 nM | 7.67 | > 10000 nM | 210 °C
4 | COc1cc(OC)c(F)c(/N=c2\ccc3ncc(-c4cnn(C)c4)nc3n2C)c1F (single isomer, unassigned) [Compound 255] | 0.776 nM | 0.513 nM | 7.93 | > 10000 nM | 199 °C
5 | COc1cc(OC)c(F)c(/N=c2\ccc3ncc(-c4cnn(C)c4)nc3n2CC2CC2)c1F (single isomer, unassigned) [Compound 267] | 4.27 nM | 1.48 nM | 7.98 | > 10000 nM | 195 °C
6 | CNC(=O)c1cc(F)cc(N(Cc2ncc[nH]2)c2ccc3ncc(-c4cnn(C)c4)nc3n2)c1 [Compound 261] | ~2.82 nM | 6.03 nM | 7.61 | > 10000 nM | 180 °C
7 | COc1cc(OC)c(F)c(N(CCS(C)(=O)=O)c2ccc3ncc(-c4cnn(CCS(C)(=O)=O)c4)nc3n2)c1 [Compound 266] | 2.24 nM | 4.27 nM | 6.29 | > 10000 nM | 180 °C
8 | COc1cc(/N=c2\ccc3ncc(-c4cnn(C)c4)nc3n2CC2CC(O)C(=O)N2)cc(OC)c1 (centres unmarked) [Compound 272] | 2.57 nM | 5.25 nM | 6.54 | > 10000 nM | 
9 | COc1cc(OC)c(C)c(N(Cc2ncc[nH]2)c2ccc3ncc(-c4cnn(C)c4)nc3n2)c1 [Compound 273] | 3.8 nM | 2.82 nM | 8.44 | > 10000 nM | 
10 | COc1cc(OC)cc(N(CCS(C)(=O)=O)c2ccc3ncc(-c4cnn(CCS(C)(=O)=O)c4)nc3n2)c1 [Compound 275] | 3.47 nM | 12 nM | 5.64 | > 10000 nM | 172 °C
11 | COc1cc(OC)cc(N(CC(C)(C)O)c2ccc3ncc(-c4cnn(C)c4)nc3n2)c1 [Compound 276] | 9.12 nM | 69.2 nM | 6.28 | > 10000 nM | 
12 | COc1cc(/N=c2\ccc3ncc(-c4cnn(C)c4)nc3n2CC(C)(C)O)cc(OC)c1 [Compound 277] | 2.09 nM | 4.68 nM | 6.91 | > 10000 nM | 
13 | COc1cc(OC)c(F)c(N(CC(C)(C)O)c2ccc3ncc(-c4cnn(C)c4)nc3n2)c1F [Compound 278] | 4.17 nM | 4.9 nM | 7.45 | > 10000 nM | 
14 | COc1cc(OC)cc(N(c2ccc3ncc(-c4cnn(C)c4)nc3n2)C(C)c2ncc[nH]2)c1 (centres unmarked) [Compound 280] | 2.04 nM | 2.34 nM | 8.64 | > 10000 nM | 
15 | COc1cc(OC)cc(N(Cc2nnc(NCCO)o2)c2ccc3ncc(-c4cnn(C)c4)nc3n2)c1 [Compound 282] | 19.1 nM | 105 nM | <5 | > 10000 nM | 104 °C
16 | COc1cc(OC)c(F)c(N(CC2CCC(=O)N2)c2ccc3ncc(-c4cnn(CC(C)(C)O)c4)nc3n2)c1 (centres unmarked) [Compound 285] | 4.07 nM | 7.24 nM | 6.38 | > 10000 nM | 
17 | COc1cc(/N=c2\ccc3ncc(-c4cnn(CC(C)(C)O)c4)nc3n2CC2CCC(=O)N2)c(F)c(OC)c1 (centres unmarked) [Compound 286] | 2.04 nM | 3.89 nM | 7.07 | > 10000 nM | 
18 | COc1cc(OC)c(F)c(N(c2ccc3ncc(-c4cnn(C)c4)nc3n2)C(C)c2ncc[nH]2)c1 (centres unmarked) [Compound 287] | 3.09 nM | 2.14 nM | 8.87 | > 10000 nM | 
19 | CNCCn1ccnc1CN(c1ccc2ncc(-c3cnn(C)c3)nc2n1)c1cc(OC)cc(OC)c1F [Compound 289] | 8.51 nM | 57.5 nM | 6.66 | > 10000 nM | 92 °C
20 | COc1cc(OC)cc(N(CCNC2COC2)c2ccc3ncc(-c4cnn(C)c4)nc3n2)c1 [Compound 290] | 4.47 nM | 12.9 nM | 7.09 | > 10000 nM | 
21 | COc1cc(OC)c(F)c(N(Cc2ncc[nH]2)c2ccc3ncc(N4CCOCC4)nc3n2)c1 [Compound 291] | 1.55 nM | 3.39 nM | 8.03 | > 10000 nM | 
22 | COc1cc(OC)cc(N(Cc2ncc[nH]2)c2ccc3ncc(N4CCOCC4)nc3n2)c1 [Compound 293] | 1.82 nM | 4.79 nM | 7.59 | > 10000 nM | 
23 | COc1cc(OC)c(F)c(N(Cc2ncc[nH]2)c2ccc3ncc(-c4cnn(CCCN)c4)nc3n2)c1 [Compound 295] | 1.74 nM | 2.4 nM | 8.47 | > 10000 nM | 
24 | COc1cc(OC)c(F)c(N(Cc2noc(C)n2)c2ccc3ncc(-c4cnn(C)c4)nc3n2)c1 [Compound 297] | 1.78 nM | 3.02 nM | 7.70 | > 10000 nM | 
25 | COc1cc(OC)c(F)c(N(CC2CCC(=O)N2)c2ccc3ncc(-c4cnn(C5CNC5)c4)nc3n2)c1 (centres unmarked) [Compound 299] | 4.68 nM | 8.91 nM | 6.05 | > 10000 nM | 
